{"source": "patent US4595693A", "about": "“Method of use of 2,5-diaryl tetrahydrofurans and analogs thereof as PAF-antagonists” (Merck & Co., Inc., priority 1984, dated 1986)", "key": {"[1]": {"target": "T1, PAF specific receptor binding site on rabbit platelet plasma membranes (Oryctolagus cuniculus, UniProt G1TEI7)", "T1 construct": "100 μg of the platelet plasma membrane suspension; from tissue; host or cells: rabbit platelet plasma membranes", "T1 sequence (G1TEI7 1-342)": "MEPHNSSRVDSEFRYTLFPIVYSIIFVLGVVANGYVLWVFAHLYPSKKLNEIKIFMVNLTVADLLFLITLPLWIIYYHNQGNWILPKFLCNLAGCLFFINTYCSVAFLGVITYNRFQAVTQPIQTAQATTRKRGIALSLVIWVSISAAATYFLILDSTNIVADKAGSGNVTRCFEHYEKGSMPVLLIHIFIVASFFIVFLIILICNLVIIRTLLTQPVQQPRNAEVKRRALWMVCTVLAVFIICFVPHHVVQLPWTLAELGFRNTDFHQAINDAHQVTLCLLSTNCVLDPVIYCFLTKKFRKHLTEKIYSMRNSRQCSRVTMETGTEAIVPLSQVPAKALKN", "experiment": "Inhibition of 3H-PAF binding to rabbit platelet plasma membrane", "settings": "1 h", "method": "The inhibition of H^3 -PAF binding to the rabbit platelet plasma membrane by a PAF-antagonist of Formula (I) was determined by a method employing isotopic labeling and filtration techniques. Generally, a series of Tris-buffered solutions of the selected antagonist at predetermined concentrations were prepared. […] After adding into a set of test tubes each with 100 μg of the platelet plasma membrane suspension and one of the Tris-buffer solutions described above, the resulting mixture in each test tube was incubated at 0° C. for about one hour or until the reaction was complete. Two control samples, one of which (C1) contains all the ingredients described above except the antagonist and the other (C2) contains C1 plus a 1000-fold excess of unlabelled PAF, were also prepared and incubated simultaneously with the test samples. After the incubation was completed, the contents of each test tube were filtered under vacuo through a Whatman GF/C fiberglass filter and the residue washed rapidly several times with a total of 20 ml cold (0°-5° C.) Tris-buffer solution. Each washed residue was then suspended in 10 ml scintillation solution (Aquasol 2, New England Nuclear, Conn.) and the radioactivity was counted in a Packard Tri-Carb 460CD Liquid Scintillation System. Defining the counts from a test sample as \"Total binding with antagonist\"; the counts from the control sample C1, as \"Total binding C1 \"; and the counts from the control sample C2 as \"non-specific binding C2 \", the percent inhibition of each test antagonist can be determined by the following equation: [formula]"}, "[2]": {"test_system": "PAF-induced cutaneous vascular permeability", "experiment": "Method I: oral inhibition of PAF-induced increase of cutaneous vascular permeability", "type": "in vivo", "settings": "guinea pig, dose 50 mg/kg PO", "description": "The specific PAF-antagonistic activities are further established by two in vivo assays (Modified procedure of Humphrey et al. Lab. Investigation, 46, 422 (1982)) following the protocols described below:\nMethod I: Protocol for the evaluation of the oral activity of PAF antagonists or the inhibition of PAF-induced increase of vasopermeability by PAF-antagonists\nI. Animal species: 5 guinea pigs (400-500 g)\nII. Material: 0.5% (w/v) aqueous methylcellulose solution sodium nembutol\n2% Evans Blue solution: 2 g of Evans Blue in 100 ml of pH 7.5 Tris-Buffer solution\nTris-Buffer solution: 150 mM NaCl and 10 mM Tris/ml with pH adjusted to 7.5.\n1. Weigh the guinea pigs. Label them as control, T1, T2, T3 and T4.\n2. Fast the animals overnight.\n3. Weigh the animals again after the fasting.\n4. Ground and suspend a PAF antagonist of formula (I) with intensive sonication in 3 ml of 0.5% aqueous methylcellulose solution.\n5. […]\n8. […] In the meantime, shave the backs of the guinea pigs and get ready for the PAF injection. […]\n15. Measure the absorbance of each supernatant from Step (14) (\"skin sample\") as well as the plasma extract from Step (13) (\"plasma sample\") at 620 nm with a Cary 210 spectrophotometer (Varian, Palo Alto, CA). […]"}, "[3]": {"test_system": "PAF-induced degranulation", "experiment": "Method II: inhibition of PAF-induced degranulation in rats", "type": "in vivo, rat", "settings": "oral dose of 50 mg/kg"}, "[4]": {"test_system": "PAF", "experiment": "PAF-antagonist activity (general comparison)"}}}
{"smiles": "COc1ccc(OC)c(C2OC(c3cc(OC)ccc3OC)C(C)C2C)c1", "note": "(stereo not shown)", "values": [{"measurement": "inhibition at 10 µM", "setting": "[1]", "result": 52, "unit": "%"}]}
{"smiles": "COC(=O)[C@@H]1[C@@H](C(=O)OC)[C@H](c2cc(OC)c(O)cc2Cl)O[C@@H]1c1cc(OC)c(O)cc1Cl", "note": "(relative stereo)", "values": [{"measurement": "inhibition at 1 µM", "setting": "[1]", "result": 15, "unit": "%"}]}
{"smiles": "COC[C@H]1[C@@H](C)[C@@H](c2ccc(OC)c(OC)c2)O[C@H]1c1ccc(OC)c(OC)c1", "note": "(relative stereo) [R=CH3; R1=CH2OCH3; Ar=3,4-dimethoxyphenyl; Ar1=Same as Ar; isomer (4)]", "values": [{"measurement": "inhibition at 5 µM", "setting": "[1]", "result": 62, "unit": "%"}]}
{"smiles": "COc1cc([C@H]2O[C@@H](c3cc(OC)c(OC)c(OC)c3)[C@H](C)[C@H]2C)cc(OC)c1OC", "note": "(relative stereo) [R=CH3; R1=CH3; Ar=3,4,5-trimethoxyphenyl; Ar1=Same as Ar; isomer (1)]", "values": [{"measurement": "inhibition at 0.5 µM", "setting": "[1]; dose 0.5 (μm)", "result": 42, "unit": "%"}, {"measurement": "inhibition at 5 µM", "setting": "[1]", "result": 61, "unit": "%"}]}
{"smiles": "COc1cc([C@@H]2O[C@@H](c3cc(OC)c(OC)c(OC)c3)[C@H](C)[C@H]2C)cc(OC)c1OC", "note": "(relative stereo) [R=CH3; R1=CH3; Ar=3,4,5-trimethoxyphenyl; Ar1=Same as Ar; isomer (2)]", "values": [{"measurement": "inhibition at 1 µM", "setting": "[1]", "result": 2, "unit": "%"}, {"measurement": "inhibition at 5 µM", "setting": "[1]", "result": 39, "unit": "%"}, {"measurement": "inhibition at 20 µM", "setting": "[1]", "result": 63, "unit": "%"}]}
{"smiles": "COc1ccc([C@H]2O[C@@H](c3ccccc3)[C@@H](C)[C@H]2C)cc1OC", "note": "(relative stereo) [R=CH3; R1=CH3; Ar=3,4-dimethoxyphenyl; Ar1=phenyl; isomer (4)]", "values": [{"measurement": "inhibition at 1 µM", "setting": "[1]", "result": 9, "unit": "%"}, {"measurement": "inhibition at 10 µM", "setting": "[1]", "result": 100, "unit": "%"}]}
{"smiles": "C[C@@H]1[C@H](C)[C@H](c2ccccc2)O[C@@H]1c1ccc2c(c1)OCO2", "note": "(relative stereo) [R=CH3; R1=CH3; Ar=3,4-methylenedioxyphenyl; Ar1=phenyl; isomer (4)]", "values": [{"measurement": "inhibition at 1 µM", "setting": "[1]", "result": 11, "unit": "%"}, {"measurement": "inhibition at 10 µM", "setting": "[1]", "result": 45, "unit": "%"}]}
{"smiles": "COc1cccc([C@H]2O[C@@H](c3ccccc3)[C@@H](C)[C@H]2C)c1", "note": "(relative stereo) [R=CH3; R1=CH3; Ar=3-methoxyphenyl; Ar1=phenyl; isomer (4)]", "values": [{"measurement": "inhibition at 1 µM", "setting": "[1]", "result": 28, "unit": "%"}, {"measurement": "inhibition at 10 µM", "setting": "[1]", "result": 49, "unit": "%"}]}
{"smiles": "COc1ccc([C@H]2O[C@@H](c3ccc(OC)cc3)[C@H](C)[C@H]2C)cc1", "note": "(relative stereo) [R=CH3; R1=CH3; Ar=4-methoxyphenyl; Ar1=Same as Ar; isomer (1)]", "values": [{"measurement": "inhibition at 10 µM", "setting": "[1]", "result": 47, "unit": "%"}]}
{"smiles": "C[C@@H]1[C@@H](C)[C@H](c2ccccc2)O[C@@H]1c1ccccc1", "note": "(relative stereo) [R=CH3; R1=CH3; Ar=phenyl; Ar1=phenyl; isomer (1)]", "values": [{"measurement": "inhibition at 5 µM", "setting": "[1]", "result": 13, "unit": "%"}]}
{"smiles": "COC(=O)[C@@H]1[C@H](C)[C@H](c2ccc(OC)c(OC)c2)O[C@@H]1c1ccc(OC)c(OC)c1", "note": "(relative stereo) [R=CO2CH3; R1=CH3; Ar=3,4-dimethoxyphenyl; Ar1=Same as Ar; isomer (4)]", "values": [{"measurement": "inhibition at 1 µM", "setting": "[1]", "result": 33, "unit": "%"}]}
{"smiles": "CCOC(=O)[C@@H]1[C@@H](C(=O)OCC)[C@H](c2ccc(OC)c(OC)c2)O[C@@H]1c1ccc(OC)c(OC)c1", "note": "(relative stereo) [R=CO2Et; R1=CO2Et; Ar=3,4-dimethoxyphenyl; Ar1=Same as Ar; isomer (1)]", "values": [{"measurement": "inhibition at 1 µM", "setting": "[1]", "result": 63, "unit": "%"}]}
{"smiles": "COc1ccc([C@H]2O[C@@H](c3ccc(OC)c(OC)c3)[C@@H](C)[C@H]2C(=O)O)cc1OC", "note": "(relative stereo) [R=COOH; R1=CH3; Ar=3,4-dimethoxyphenyl; Ar1=Same as Ar; isomer (4)]", "values": [{"measurement": "inhibition at 1 µM", "setting": "[1]", "result": 18, "unit": "%"}]}
{"smiles": "COc1cc([C@H]2O[C@@H](c3cc(OC)c(OC)c(OC)c3)[C@@H](C)[C@H]2C)cc(OC)c1OC", "note": "[R=CH3; R1=CH3; Ar=3,4,5-trimethoxyphenyl; Ar1=Same as Ar; isomer (4)]", "values": [{"measurement": "inhibition at 1 µM", "setting": "[1]", "result": 12, "unit": "%"}, {"measurement": "inhibition at 5 µM", "setting": "[1]", "result": 48, "unit": "%"}, {"measurement": "inhibition at 20 µM", "setting": "[1]", "result": 68, "unit": "%"}]}
{"smiles": "COc1ccc([C@H]2O[C@@H](c3ccc(OC)c(OC)c3)[C@@H](C)[C@H]2C)cc1OC", "note": "[R=CH3; R1=CH3; Ar=3,4-dimethoxyphenyl; Ar1=Same as Ar; isomer (4), All cis-3,4-Dimethyl-2,5-bis(3,4-dimethoxyphenyl)-tetrahydrofuran]", "values": [{"measurement": "% inhibition", "setting": "[2]", "result": 30, "unit": "%"}, {"measurement": "inhibition of PAF-induced degranulation", "setting": "[3]", "result": 49, "unit": "%"}, {"measurement": "PAF-antagonist activity, rank in words", "setting": "[4]", "result": "most active PAF-antagonist"}]}
